Source: ChEMBL document CHEMBL5543136, “Discovery of Novel Heterotricyclic Compounds as DNA-Dependent Protein Kinase (DNA-PK) Inhibitors with Enhanced Chemosensitivity, Oral Bioavailability, and the Ability to Potentiate Cancer Immunotherapy” (J Med Chem, 2024)
The source made the active and inactive calls. The calls are words filed in the database; no cut-off is given here.

Tests used:
[1] = molecular target: DNA-dependent protein kinase catalytic subunit (Homo sapiens, UniProt P78527); assay: Inhibition of human full-length DNA-PK using EPPLSQEAFADLWKK as substrate incubated for 60 mins in presence of ATP by ADP-Glo kinase assay
[2] = tested on: B16-F10; assay: Antiproliferative activity against mouse B16-F10 cells assessed as reduction in cell viability incubated for 48 hrs by CCK-8 assay; format: functional, cell-based; conditions: B16-F10, 48 h
[3] = tested on: CT26; assay: Antiproliferative activity against mouse CT26 cells assessed as reduction in cell viability incubated for 48 hrs by CCK-8 assay; format: functional, cell-based; conditions: CT26, 48 h
[4] = tested on: CT26; assay: Synergistic antiproliferative activity against mouse CT26 cells assessed as reduction in cell viability incubated for 48 hrs in presence of doxorubicin by CCK-8 assay; format: functional, cell-based; conditions: CT26, 48 h
[5] = tested on: B16-F10; assay: Synergistic antiproliferative activity against mouse B16-F10 cells assessed as reduction in cell viability incubated for 48 hrs in presence of doxorubicin by CCK-8 assay; format: functional, cell-based; conditions: B16-F10, 48 h
[6] = tested on: Jurkat; assay: Antiproliferative activity against human Jurkat cells assessed as reduction in cell viability incubated for 48 hrs by CCK-8 assay; format: functional, cell-based
[7] = tested on: Jurkat; assay: Synergistic antiproliferative activity against human Jurkat cells assessed as reduction in cell viability incubated for 48 hrs in presence of doxorubicin by CCK-8 assay; format: functional, cell-based
[8] = Toxicity in C57BL/6 mouse implanted with mouse B16-F10 cells assessed as effect on body weight at 50 mg/kg, ip administered once daily for 13 days; format: organism-based; conditions: in vivo, 312 h, time 13 day
[9] = tested on: B16-F10; assay: Immunomodulatory activity in mouse B16-F10 cells implanted in C57BL/6 mouse assessed as percentage of CD3 positive CD4 positive cells in tumor at 50 mg/kg, ip administered once daily for 13 days by flow cytometric analysis (reference value: 0.86%); format: functional; conditions: time 13 day
[10] = tested on: B16-F10; assay: Immunomodulatory activity in mouse B16-F10 cells implanted in C57BL/6 mouse assessed as percentage of CD3 positive CD8 positive cells in tumor at 50 mg/kg, ip administered once daily for 13 days by flow cytometric analysis (reference value: 0.99%); format: functional; conditions: time 13 day
[11] = tested on: B16-F10; assay: Antitumor activity against mouse B16-F10 cells implanted in C57BL/6 mouse assessed as tumor growth inhibition at 50 mg/kg, ip administered once daily for 13 days relative to control; format: functional; conditions: B16-F10, 312 h, time 13 day, read-out: TGI
[12] = tested on: CT26; assay: Antiproliferative activity against mouse CT26 cells assessed as inhibition of cell growth incubated for 48 hrs by CCK-8 assay relative to control; format: functional
[13] = tested on: Jurkat; assay: Antiproliferative activity against human Jurkat cells assessed as inhibition of cell growth incubated for 48 hrs by CCK-8 assay relative to control; format: functional
[14] = Toxicity in BALB/c mouse implanted with mouse CT26 cells assessed as weight loss at 2.5 mg/kg, iv administered once a week for 21 days; format: organism-based; conditions: in vivo, 504 h, time 21 day
[15] = tested on: B16-F10; assay: Antiproliferative activity against mouse B16-F10 cells assessed as inhibition of cell growth incubated for 48 hrs by CCK-8 assay relative to control; format: functional
[16] = tested on: CT26; assay: Antitumor activity against mouse CT26 cells implanted in BALB/c mouse assessed as tumor growth inhibition at 10 mg/kg, ip administered once daily for 21 days relative to control; format: functional; conditions: CT26, 504 h, time 21 day, read-out: TGI
[17] = tested on: CT26; assay: Antitumor activity against mouse CT26 cells implanted in BALB/c mouse assessed as tumor growth inhibition at 2.5 mg/kg, iv administered once a week for 21 days relative to control; format: functional; conditions: CT26, 504 h, time 21 day, read-out: TGI
[18] = tested on: Cell membrane; assay: Induction of mitochondrial membrane potential loss in human Jurkat cells at 1 uM incubated for 24 hrs in presence of doxorubicin by JC-1 staining based flow cytometric analysis; format: cell membranes
[19] = tested on: Cell membrane; assay: Induction of mitochondrial membrane potential loss in human Jurkat cells at 1 uM incubated for 24 hrs by JC-1 staining based flow cytometric analysis; format: cell membranes
[20] = tested on: HepG2; assay: Inhibition of DNA damage repair in human HepG2 cells assessed as reduction in gammaH2AX expression level at 20 uM by Western blot analysis; format: functional, cell-based
[21] = tested on: Jurkat; assay: Induction of cell cycle arrest in human Jurkat cells assessed as decrease in S phase cells at 1 uM incubated for 24 hrs in presence of doxorubicin by PI staining based flow cytometric analysis; format: functional
[22] = tested on: Jurkat; assay: Induction of cell cycle arrest in human Jurkat cells assessed as increase in G2/M phase cells at 1 uM incubated for 24 hrs in presence of doxorubicin by PI staining based flow cytometric analysis; format: functional

Sequence of DNA-dependent protein kinase catalytic subunit (P78527 whole entry): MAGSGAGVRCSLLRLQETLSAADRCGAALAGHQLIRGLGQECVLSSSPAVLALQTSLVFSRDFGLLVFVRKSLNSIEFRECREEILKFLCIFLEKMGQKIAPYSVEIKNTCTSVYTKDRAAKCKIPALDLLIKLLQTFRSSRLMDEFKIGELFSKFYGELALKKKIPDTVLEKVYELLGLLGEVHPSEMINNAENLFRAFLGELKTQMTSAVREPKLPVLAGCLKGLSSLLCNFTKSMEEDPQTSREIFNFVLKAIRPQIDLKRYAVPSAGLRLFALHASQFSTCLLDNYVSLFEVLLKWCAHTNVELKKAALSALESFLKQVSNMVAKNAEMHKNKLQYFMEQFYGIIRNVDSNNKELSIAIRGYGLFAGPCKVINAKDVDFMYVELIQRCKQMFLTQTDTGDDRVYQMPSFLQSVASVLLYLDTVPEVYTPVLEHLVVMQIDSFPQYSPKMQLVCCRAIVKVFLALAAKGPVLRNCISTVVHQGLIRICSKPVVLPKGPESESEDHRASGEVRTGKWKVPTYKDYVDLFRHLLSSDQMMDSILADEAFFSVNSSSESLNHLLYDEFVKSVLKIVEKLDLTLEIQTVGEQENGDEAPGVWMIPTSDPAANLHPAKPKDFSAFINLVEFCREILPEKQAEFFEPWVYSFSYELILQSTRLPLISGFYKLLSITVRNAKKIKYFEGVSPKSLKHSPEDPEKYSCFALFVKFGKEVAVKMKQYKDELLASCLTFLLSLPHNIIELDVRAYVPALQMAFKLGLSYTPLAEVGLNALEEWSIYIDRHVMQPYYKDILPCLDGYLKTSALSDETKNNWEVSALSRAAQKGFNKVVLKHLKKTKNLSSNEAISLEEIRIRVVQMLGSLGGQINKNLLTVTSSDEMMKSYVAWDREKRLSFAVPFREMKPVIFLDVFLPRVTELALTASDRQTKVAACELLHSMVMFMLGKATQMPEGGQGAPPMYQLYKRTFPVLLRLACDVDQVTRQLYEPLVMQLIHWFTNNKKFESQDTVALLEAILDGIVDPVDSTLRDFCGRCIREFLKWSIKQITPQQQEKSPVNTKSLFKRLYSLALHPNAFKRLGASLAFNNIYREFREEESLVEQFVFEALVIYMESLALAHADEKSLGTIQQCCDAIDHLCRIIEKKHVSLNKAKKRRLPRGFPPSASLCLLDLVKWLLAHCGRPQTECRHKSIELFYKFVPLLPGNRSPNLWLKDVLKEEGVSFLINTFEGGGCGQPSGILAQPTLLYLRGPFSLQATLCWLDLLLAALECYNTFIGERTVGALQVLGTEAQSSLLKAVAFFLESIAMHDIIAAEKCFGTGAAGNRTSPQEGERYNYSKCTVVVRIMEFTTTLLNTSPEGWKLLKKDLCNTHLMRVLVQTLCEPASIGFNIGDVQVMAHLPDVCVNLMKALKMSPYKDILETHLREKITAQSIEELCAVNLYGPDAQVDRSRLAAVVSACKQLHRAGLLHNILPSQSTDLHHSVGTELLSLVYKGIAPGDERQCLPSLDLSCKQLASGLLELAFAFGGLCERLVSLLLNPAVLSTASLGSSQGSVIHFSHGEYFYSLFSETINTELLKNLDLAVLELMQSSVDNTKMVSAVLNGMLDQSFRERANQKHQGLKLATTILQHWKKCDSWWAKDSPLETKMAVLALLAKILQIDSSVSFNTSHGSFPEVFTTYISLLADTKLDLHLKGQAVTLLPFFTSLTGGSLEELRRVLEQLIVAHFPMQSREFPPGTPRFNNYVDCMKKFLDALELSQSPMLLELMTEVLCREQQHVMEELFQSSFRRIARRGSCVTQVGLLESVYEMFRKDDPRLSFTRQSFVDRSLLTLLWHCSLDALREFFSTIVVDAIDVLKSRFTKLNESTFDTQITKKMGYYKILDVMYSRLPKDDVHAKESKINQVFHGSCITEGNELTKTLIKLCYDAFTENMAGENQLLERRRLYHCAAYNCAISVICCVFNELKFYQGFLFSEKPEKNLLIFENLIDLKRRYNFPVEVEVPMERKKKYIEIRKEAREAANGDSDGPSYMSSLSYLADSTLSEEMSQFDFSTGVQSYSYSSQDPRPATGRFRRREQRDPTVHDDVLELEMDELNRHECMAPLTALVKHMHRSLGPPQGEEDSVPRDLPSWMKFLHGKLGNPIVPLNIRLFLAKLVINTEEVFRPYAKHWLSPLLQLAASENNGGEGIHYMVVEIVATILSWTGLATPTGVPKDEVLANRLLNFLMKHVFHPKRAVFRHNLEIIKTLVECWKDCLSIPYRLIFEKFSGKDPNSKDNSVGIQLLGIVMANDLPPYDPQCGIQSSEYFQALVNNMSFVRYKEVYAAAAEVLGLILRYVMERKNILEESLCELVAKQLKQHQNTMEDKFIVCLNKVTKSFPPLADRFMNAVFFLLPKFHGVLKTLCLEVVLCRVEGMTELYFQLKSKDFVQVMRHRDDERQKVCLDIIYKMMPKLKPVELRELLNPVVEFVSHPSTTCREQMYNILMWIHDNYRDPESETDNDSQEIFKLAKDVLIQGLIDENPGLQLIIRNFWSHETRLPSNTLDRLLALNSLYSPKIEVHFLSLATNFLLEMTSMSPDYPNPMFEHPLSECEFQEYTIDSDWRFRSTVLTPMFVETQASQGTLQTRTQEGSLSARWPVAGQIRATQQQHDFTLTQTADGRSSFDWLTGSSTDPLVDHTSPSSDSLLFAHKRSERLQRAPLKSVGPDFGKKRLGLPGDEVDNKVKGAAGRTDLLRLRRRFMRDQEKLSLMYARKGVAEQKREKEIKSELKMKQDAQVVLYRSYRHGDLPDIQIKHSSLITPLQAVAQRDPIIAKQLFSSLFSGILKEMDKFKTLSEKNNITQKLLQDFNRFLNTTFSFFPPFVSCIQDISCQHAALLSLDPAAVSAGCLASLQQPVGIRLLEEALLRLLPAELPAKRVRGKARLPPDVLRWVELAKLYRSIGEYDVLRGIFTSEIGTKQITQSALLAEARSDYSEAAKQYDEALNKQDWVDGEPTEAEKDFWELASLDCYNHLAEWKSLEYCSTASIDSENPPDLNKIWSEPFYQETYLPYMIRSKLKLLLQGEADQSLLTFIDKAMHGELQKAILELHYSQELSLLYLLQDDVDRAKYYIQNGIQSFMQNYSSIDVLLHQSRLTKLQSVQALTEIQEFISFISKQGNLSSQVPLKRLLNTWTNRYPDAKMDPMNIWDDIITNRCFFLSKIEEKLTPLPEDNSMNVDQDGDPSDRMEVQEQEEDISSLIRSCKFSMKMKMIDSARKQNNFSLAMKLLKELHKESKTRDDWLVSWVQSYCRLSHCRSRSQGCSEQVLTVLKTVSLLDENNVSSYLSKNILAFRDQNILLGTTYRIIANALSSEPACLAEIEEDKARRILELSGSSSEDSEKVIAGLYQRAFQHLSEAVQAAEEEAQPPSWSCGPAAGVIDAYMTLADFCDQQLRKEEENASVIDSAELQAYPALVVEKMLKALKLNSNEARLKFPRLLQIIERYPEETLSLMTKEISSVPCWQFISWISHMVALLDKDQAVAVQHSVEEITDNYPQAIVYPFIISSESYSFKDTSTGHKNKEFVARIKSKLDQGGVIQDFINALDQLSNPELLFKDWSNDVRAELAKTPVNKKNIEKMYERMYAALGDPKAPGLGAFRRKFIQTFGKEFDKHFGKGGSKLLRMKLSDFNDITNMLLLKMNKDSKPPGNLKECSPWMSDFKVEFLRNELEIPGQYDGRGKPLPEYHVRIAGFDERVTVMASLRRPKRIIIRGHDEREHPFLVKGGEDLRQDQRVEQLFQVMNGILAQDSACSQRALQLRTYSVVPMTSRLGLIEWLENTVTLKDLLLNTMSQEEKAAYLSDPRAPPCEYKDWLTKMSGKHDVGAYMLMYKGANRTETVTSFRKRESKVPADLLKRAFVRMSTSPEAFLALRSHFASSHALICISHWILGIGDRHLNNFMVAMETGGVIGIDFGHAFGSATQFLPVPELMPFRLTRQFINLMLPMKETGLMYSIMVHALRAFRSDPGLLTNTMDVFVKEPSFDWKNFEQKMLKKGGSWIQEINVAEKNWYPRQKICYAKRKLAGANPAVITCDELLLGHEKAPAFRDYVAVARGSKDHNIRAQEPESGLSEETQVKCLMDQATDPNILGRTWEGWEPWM

Row | Structure (SMILES) | IC50 [1] [µM] | IC50 [2] [µM] | IC50 [3] [µM] | IC50 [4] [µM] | IC50 [5] [µM] | IC50 [6] [µM] | IC50 [7] [µM] | also measured
1 | c1cn2c(n1)CN(C1CCOCC1)c1nc(Nc3ccc4nccnc4c3)ncc1-2 | 0.0628 | 31.9 | 27.6 | 14.9 | 20.9 | 0.8 | 0.21 | 
2 | Cc1cc2cccnc2cc1Nc1ncc2c(n1)N(C1CCOCC1)Cc1nccn1-2 | 0.00035 | 19.5 | 8.9 | 3.1 | 7.5 | 0.7 | 0.04 | 
3 | Cc1nnc2n1-c1cnc(Nc3ccc4nccnc4c3)nc1N(C1CCOCC1)C2 | 0.0518 | 26.9 | 19.4 | 9.7 | 26.9 | 0.9 | 0.17 | 
4 | Cc1cnc(-c2cnn(C)c2)cc1Nc1ncc2c(n1)N(C1CCOCC1)Cc1nccn1-2 | 0.0294 | > 50 | > 50 |  |  | 15 |  | 
5 | Cc1cc2cccnc2cc1Nc1ncc2c(n1)N(C1CCOCC1)Cc1nnc(C)n1-2 | 0.00062 | 12.9 | 5.2 | 1.5 | 6.5 | 0.8 | 0.05 | 
6 | Cc1c(COc2cc(OCc3cccc(C#N)c3)c(CN3CCCCC3C(=O)NCCNC(=O)CCCC[C@@H]3SC[C@@H]4NC(=O)N[C@@H]43)cc2Cl)cccc1-c1ccccc1 (stereo partly specified) |  |  |  |  |  |  |  | Activity [8]: Non-Toxic; Activity [9]: 3.23%; Activity [10]: 3.53%; inhibition in vivo at 50 mg/kg [11]: 48.2%
7 | COc1ccc(Nc2ncc3c(n2)N(C2CCOCC2)Cc2nnc(C)n2-3)c(C)c1 | 0.0153 | > 50 | > 50 |  |  | > 50 |  | 
8 | COc1cccc2c1C(=O)c1c(O)c3c(c(O)c1C2=O)C[C@@](O)(C(=O)CO)C[C@@H]3O[C@H]1C[C@H](N)[C@H](O)[C@H](C)O1 [DOXORUBICIN] |  |  |  |  |  |  |  | inhibition (INH) [12]: 9.75%; inhibition (INH) [13]: 23%; Activity [14]: Non-Toxic; inhibition (INH) [15]: 6.2%; inhibition in vivo at 10 mg/kg [16]: 30.8%; inhibition in vivo at 2.5 mg/kg [17]: 25.9%
9 | COc1ccc(Nc2ncc3c(n2)N(C2CCOCC2)Cc2nccn2-3)c(C)c1 | 0.0089 | 41.8 | 31.2 | 15.3 | 21.9 | 1.4 | 0.51 | 
10 | Cc1cc2ncnn2cc1Nc1ncc2c(n1)n(C1CCOCC1)c(=O)n2C [AZD-7648] |  | 33.6 | 18.8 | 6.74 | 11.4 | 12.3 | 0.09 | Activity [18]: Active; Activity [19]: inactive; inhibition [20]: Active; Activity [21]: Active; Activity [22]: Active
11 | c1cnc2cc(Nc3ncc4c(n3)N(C3CCOCC3)Cc3nncn3-4)ccc2n1 | 0.0715 | > 50 | 45.9 |  |  | 4.1 |  | 
12 | Cc1cnc(-c2cnn(C)c2)cc1Nc1ncc2c(n1)N(C1CCOCC1)Cc1nncn1-2 | 0.0261 | > 50 | > 50 |  |  | > 50 |  | 

Second part, led by results:

Row | IC50 [1] [µM] | IC50 [2] [µM] | IC50 [3] [µM] | IC50 [4] [µM] | IC50 [5] [µM] | IC50 [6] [µM] | IC50 [7] [µM] | Structure (SMILES) | also measured
13 | 0.0084 | > 50 | > 50 |  |  | 25.2 |  | Cc1cc2ncnn2cc1Nc1ncc2c(n1)N(C1CCOCC1)Cc1nnc(C)n1-2 | 
14 | 0.0056 | > 50 | > 50 |  |  | > 50 |  | Cc1cc2ncnn2cc1Nc1ncc2c(n1)N(C1CCOCC1)Cc1nncn1-2 | 
15 | 0.0036 | > 50 | > 50 |  |  | 9.4 |  | Cc1cc2ncnn2cc1Nc1ncc2c(n1)N(C1CCOCC1)Cc1nccn1-2 | 
16 | 0.0214 | > 50 | > 50 |  |  | 5.7 |  | Cc1cnc(-c2cnn(C)c2)cc1Nc1ncc2c(n1)N(C1CCOCC1)Cc1nnc(C)n1-2 | 
17 |  | 46.8 | 32.9 | 9.35 | 20.6 | 11.4 | 0.11 | Cc1cc2ncnn2cc1Nc1ncc2c(n1)N(C1CCOCC1)CC(=O)N2C | Activity [19]: inactive; inhibition [20]: Active
